Where a name gives a salt, the structure may show the parent alone.
Legend:
canine TRPM8 = target: T1, canine TRPM8 (Canis lupus familiaris, UniProt Q1A7N1); test: In Vitro Canine TRPM8 Functional Assay (icilin-induced intracellular Ca2+ fluorescence, FLIPR/FDSS); format: cell-based; conditions: HEK293 cells stably expressing canine TRPM8; for inhibition at 0.2 µM: 0.2 μM test compound, icilin challenge; for IC50: icilin challenge (~80% maximal response), eight-point dose-response
T1 construct: expressed in transfected cells
Method: The functional activity of representative compounds of the formula (I) of the present invention were measured by measuring changes in intracellular calcium concentration using a Ca^2+-sensitive fluorescent dye. The changes in fluorescent signal were monitored by a fluorescence plate reader, either a FLIPR™ (Molecular Devices) or FDSS (Hamamatsu).
HEK293 cells stably expressing canine TRPM8 were routinely grown as monolayers in Dulbecco's minimum essential medium supplemented with 10% FBS, 2 mM L-glutamine, 100 units/mL penicillin, 100 ug/mL streptomycin and 400 μg/mL G418. Cells were maintained in 5% CO2 at 37° C. At 24 hrs prior to assay, cells were seeded in black wall, clear-base poly-D-lysine coated 384-well plates (BD Biosciences, NJ, USA) at a density of 5,000 cells per well in culture medium and grown overnight in 5% CO2 at 37° C. On assay day, growth media was removed and cells were loaded with Calcium 3 Dye (Molecular Devices) for 35 min at 37° C., under 5% CO2 and then for 25 min at room temperature and atmosphere. Subsequently, cells were tested for agonist-induced increases in intracellular Ca^2+ levels using FLIPR™ or FDSS. Cells were challenged with compounds of the formula (I) (at varying concentrations) and intracellular Ca^2+ was measured for 5 min prior to the addition of icilin to all wells to achieve a final concentration that produces approximately an 80% maximal response.
Basal FI was subtracted prior to normalizing data to percent of maximal response. Curves were generated using the average of quadruplicate wells for each data point, were analyzed using nonlinear regression of either sigmoidal dose response or sigmoidal dose response (variable slope). Finally, the EC50 and IC50 values were calculated with the best-fit dose curve determined by GraphPad Prism

Male Sprague Dawley rats [1] = test: Inhibition of Icilin-Induced “Wet-Dog” Shakes in Rats; format: in vivo; conditions: 60 min before icilin 3.0 mg/kg i.p., rat
Method: Male Sprague Dawley rats ([…], Charles River Labs, n=6-9/treatment) were used to evaluate the ability of test compounds to block icilin-induced “wet-dog” shakes (WDS). The test compound was administered in 10% hydroxypropyl-β-cyclodextrin (HP β CD), p.o., 60 minutes before icilin. Icilin was then administered in 10% solutol/H2O, at 3.0 mg/kg, i.p. and spontaneous “wet-dog” shakes were counted over a 10 minute period, 10 minutes following the icilin injection.

Male Sprague Dawley rats [2] = test: Chronic Constriction Injury (CCI)-Induced Model of Neuropathic Pain - Acetone-Induced Hypersensitivity; format: in vivo; conditions: 10 mg/kg p.o. in 10% HP β CD, rat
Source text: Male Sprague Dawley rats (225-450 g; n=5-8/treatment) were used to evaluate the ability of test compounds to reverse CCI-induced cold hypersensitivity. Four loose ligatures of 4-0 chromic gut were surgically placed around the left sciatic nerve under inhalation anesthesia as described by Bennett et al (BENNETT G. J. et al., “A Peripheral Mononeuropathy in Rat that Produces Disorders of Pain Sensation Like Those Seen in Man”, Pain, 1988, pp. 87-107, Vol 33(1)). Fourteen to 35 days following CCI surgery, subjects were placed in elevated observation chambers containing wire mesh floors and five applications of acetone (0.05 mL/application separated by approximately 5 minutes) were spritzed onto the plantar surface of the paw using a multidose syringe. An abrupt withdrawal or lifting of the paw was considered a positive response. The number of positive responses was recorded for each rat over the five trials. Following baseline withdrawal determinations, test compounds were administered in 10% hydroxypropyl-β-cyclodextrin (HP β CD), p.o. The number of withdrawals was re-determined at 2, 3 and 4 hours after compound administration.

T1 sequence (Q1A7N1 1-1104): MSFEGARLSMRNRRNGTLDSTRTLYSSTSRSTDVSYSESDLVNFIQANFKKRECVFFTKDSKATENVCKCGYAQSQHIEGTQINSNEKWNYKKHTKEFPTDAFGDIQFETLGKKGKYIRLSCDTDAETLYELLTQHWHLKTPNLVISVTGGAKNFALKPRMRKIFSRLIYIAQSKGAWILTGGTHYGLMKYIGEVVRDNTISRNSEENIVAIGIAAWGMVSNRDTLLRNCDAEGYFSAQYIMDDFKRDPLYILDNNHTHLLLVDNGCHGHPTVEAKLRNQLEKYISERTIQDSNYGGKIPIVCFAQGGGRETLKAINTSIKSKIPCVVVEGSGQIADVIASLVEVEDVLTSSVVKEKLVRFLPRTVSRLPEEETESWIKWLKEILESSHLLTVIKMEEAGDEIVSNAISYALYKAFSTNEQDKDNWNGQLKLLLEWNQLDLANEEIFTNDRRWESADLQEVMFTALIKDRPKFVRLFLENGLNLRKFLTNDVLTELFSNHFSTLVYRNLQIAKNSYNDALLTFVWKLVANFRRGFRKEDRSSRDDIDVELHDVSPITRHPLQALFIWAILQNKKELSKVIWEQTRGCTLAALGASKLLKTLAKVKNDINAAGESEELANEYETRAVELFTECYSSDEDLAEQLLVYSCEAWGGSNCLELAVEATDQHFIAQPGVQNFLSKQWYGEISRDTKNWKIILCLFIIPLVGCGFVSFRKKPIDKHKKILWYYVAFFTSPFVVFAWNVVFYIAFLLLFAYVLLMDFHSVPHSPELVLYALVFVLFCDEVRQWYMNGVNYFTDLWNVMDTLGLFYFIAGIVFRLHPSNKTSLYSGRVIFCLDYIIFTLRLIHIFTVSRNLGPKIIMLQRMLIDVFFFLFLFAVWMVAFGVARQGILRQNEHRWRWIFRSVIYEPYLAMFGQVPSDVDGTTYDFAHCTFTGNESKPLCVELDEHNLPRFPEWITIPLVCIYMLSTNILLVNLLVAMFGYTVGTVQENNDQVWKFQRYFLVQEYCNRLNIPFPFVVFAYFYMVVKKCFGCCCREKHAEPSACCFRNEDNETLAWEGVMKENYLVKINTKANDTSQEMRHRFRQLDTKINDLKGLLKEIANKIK

| inhibition at 0.2 µM (canine TRPM8) [%] | IC50 (canine TRPM8) [nM] | SMILES | % Inhibition of icilin-induced “wet-dog” shakes (Male Sprague Dawley rats [1]; 10 mg/kg p.o.) [%] | % Inhibition (acetone-evoked paw withdrawals, CCI) (Male Sprague Dawley rats [2]; 2 h after administration) [%] | % Inhibition (acetone-evoked paw withdrawals, CCI) (Male Sprague Dawley rats [2]; 3 h after administration) [%] | % Inhibition (acetone-evoked paw withdrawals, CCI) (Male Sprague Dawley rats [2]; 4 h after administration) [%] | % Inhibition of icilin-induced “wet-dog” shakes (Male Sprague Dawley rats [1]; 30 mg/kg p.o.) [%] |
| --- | --- | --- | --- | --- | --- | --- | --- |
| 101 | 17 | FC(F)(F)c1ccccc1-c1ccc2[nH]c(/C=C/C3CCOCC3)nc2c1 [Compound 50, (E)-2-[2-(Tetrahydro-pyran-4-yl)-vinyl]-5-(2-trifluoromethyl-phenyl)-1H-benzimidazole hydrochloride] | 89 |  |  |  |  |
| 83 | 9 | FC(F)(F)c1cccc(C(F)(F)F)c1-c1ccc2[nH]c(/C=C/C3CCCCC3)nc2c1 [Compound 58, (E)-5-(2,6-Bis-trifluoromethyl-phenyl)-2-(2-cyclohexyl-vinyl)-1H-benzimidazole] | 30 |  |  |  |  |
| 96 | 6 | Fc1cccc(OC(F)(F)F)c1-c1ccc2[nH]c(/C=C/C3CCCCC3)nc2c1 [Compound 59, (E)-2-(2-Cyclohexyl-vinyl)-5-(2-fluoro-6-trifluoromethoxy-phenyl)-1H-benzimidazole] | 75 |  |  |  |  |
| 94 | 9 | Cl.FC(F)(F)c1ccccc1-c1ccc2[nH]c(/C=C/C3CCCCC3)nc2c1 [Compound 71, 2-(2-Cyclohexyl-vinyl)-5-(2-trifluoromethyl-phenyl)-1H-benzoimidazole hydrochloride] |  | 91 | 91 | 77 | 90 |
